Where two headings read alike, the source gives them in different places.
How the values were obtained:
P. vulgaris = experiment: Serial twofold agar dilution (Mueller-Hinton agar), P. vulgaris; type: cell-based
Method: (§1) The Minimum Inhibitory Concentrations (MIC) for sodium 6-[D-(-)-α-phenyl-α-(7-hydroxy-4-oxo-4H-pyrimido[1,2-b]pyridazin-3-ylcarboxamido)acetamido]penicillanate (BB-P598) and sulbenicillin were determined by the serial twofold agar dilution method using Steers' apparatus on Mueller-Hinton agar plates against 31 test organisms for the primary screening (Table 1) and also against 61 strains of Pseudomonas aeruginosa for the secondary evaluation (Table 2).
(§2) Minimum Inhibitory Concentrations (MIC) for sodium 6-[D-(-)-α-phenyl-α-(7-hydroxy-4-oxo-4H-pyrimido[1,2-b]pyridazin-3-ylcarboxamido)acetamido]pencillanate (BB-P598), sodium 6-[D-(-)-α-(4-hydroxyphenyl)-α-(7-hydroxy-4-oxo-4H-pyrimido[1,2-b]pyridazin-3-ylcarboxamido)acetamido]-penicillanate (BB-P642) and carbenicillin were determined by the serial twofold agar dilution method using Steers' apparatus on Mueller-Hinton agar plates against 31 tests organisms (Table 8) and also against 61 strains of Pseudomonas aeruginosa (Table 9). In terms of mean % relative activity compared with carbenicillin, compounds BB-B598 and BB-P642 were 856% and 1319% as active as carbenicillin against the 61 Pseudomonas strains of Table 9.

P. morganii = experiment: Serial twofold agar dilution (Mueller-Hinton agar), P. morganii; type: cell-based
Method: as §1, §2

S. marcescens = experiment: Serial twofold agar dilution (Mueller-Hinton agar), S. marcescens; type: cell-based; conditions: Serratia marcescens
Method: as §1, §2

Klebsiella sp. = experiment: Serial twofold agar dilution (Mueller-Hinton agar), Klebsiella sp.; type: cell-based; conditions: Klebsiella sp. A20452, Mueller-Hinton agar
Method: as §1, §2

E. coli = experiment: Serial twofold agar dilution (Mueller-Hinton agar), E. coli; type: cell-based; conditions: Escherichia coli
Method: as §1, §2

[1] = Mouse blood levels after subcutaneous administration; conditions: in vivo, sc, 20 mg/kg
Method: Mouse blood levels of BB-[…] and BB-[…] were determined by subcutaneous administration of 20 mg/kg of the penicillin to groups of three mice. Blood samples collected from orbital sinuses were assayed by the paper disk agar-diffusion method on Sarcina lutea PC1 1001 plates.

K. pneumoniae = experiment: Serial twofold agar dilution (Mueller-Hinton agar), K. pneumoniae; type: cell-based
Method: as §1, §2

S. enteritidis = experiment: Serial twofold agar dilution (Mueller-Hinton agar), S. enteritidis; type: cell-based
Method: as §1, §2

E. cloacae = experiment: Serial twofold agar dilution (Mueller-Hinton agar), E. cloacae; type: cell-based; conditions: Enterobacter cloacae
Method: as §1, §2

Pseudomonas sp. = experiment: Serial twofold agar dilution (Mueller-Hinton agar), Pseudomonas sp.; type: cell-based
Method: as §1, §2

S. aureus = experiment: Serial twofold agar dilution (Mueller-Hinton agar), S. aureus; type: cell-based; conditions: Staphylococcus aureus
Method: as §1, §2

P. mirabilis = experiment: Serial twofold agar dilution (Mueller-Hinton agar), P. mirabilis; type: cell-based; conditions: Proteus mirabilis, P. mirabilis A9900, Mueller-Hinton agar, read-out: MIC
Method: as §1, §2

Pseudomonas aeruginosa = experiment: Serial twofold agar dilution (Mueller-Hinton agar), P. aeruginosa; type: cell-based; conditions: for MIC: Pseudomonas aeruginosa
Method: as §1, §2

CC1(C)S[C@@H]2[C@H](NC(=O)[C@H](NC(=O)c3cnc4ccc(O)nn4c3=O)c3ccccc3)C(=O)N2[C@H]1C(=O)O [BB-P598, sodium 6-[D-(-)-α-phenyl-α-(7-hydroxy-4-oxo-4H-pyrimido[1,2-b]pyridazin-3-ylcarboxamido)acetamido]penicillanate]
MIC (P. vulgaris; P. vulgaris A9539, Table 1): 25 µg/mL | MIC (P. vulgaris; Proteus vulgaris, P. vulgaris A9539, Table 8, read-out: MIC): 25 µg/mL | MIC (P. morganii; Morganella morganii, P. morganii A9553, Table 8, read-out: MIC): > 100 µg/mL | MIC (P. morganii; P. morganii A9553, Table 1): > 100 µg/mL | MIC (S. marcescens; S. marcescens A20019, Table 1): 100 µg/mL | MIC (S. marcescens; S. marcescens A20019, Table 8): 50 µg/mL | MIC (Klebsiella sp.; Table 1, read-out: MIC): 25 µg/mL | MIC (Klebsiella sp.; Table 8, read-out: MIC): 12.5 µg/mL | MIC (E. coli; E. coli A9635, Table 8, read-out: MIC): 12.5 µg/mL | MIC (E. coli; E. coli A9844, Table 8, read-out: MIC): 6.3 µg/mL | MIC (E. coli; E. coli A20366, Table 8, read-out: MIC): > 100 µg/mL | MIC (E. coli; E. coli A20520, Table 8, read-out: MIC): 3.1 µg/mL | MIC (E. coli; E. coli A20664, Table 8, read-out: MIC): 0.8 µg/mL | MIC (E. coli; E. coli A20732, Table 8, read-out: MIC): 50 µg/mL | MIC (E. coli; E. coli A20898, Table 8, read-out: MIC): > 100 µg/mL | MIC (E. coli; E. coli Juhl A9435, Table 1): 12.5 µg/mL | MIC (E. coli; E. coli Juhl A9844, Table 1, read-out: MIC): 3.1 µg/mL | MIC (E. coli; E. coli Juhl A15119, Table 1, read-out: MIC): 12.5 µg/mL | MIC (E. coli; E. coli Juhl A15119, Table 8, read-out: MIC): 12.5 µg/mL | MIC (E. coli; E. coli Juhl A20366, Table 1, read-out: MIC): > 100 µg/mL | MIC (E. coli; E. coli Juhl A20520, Table 1, read-out: MIC): 1.6 µg/mL | MIC (E. coli; E. coli Juhl A20664, Table 1, read-out: MIC): 0.8 µg/mL | MIC (E. coli; E. coli Juhl A20732, Table 1, read-out: MIC): 100 µg/mL | MIC (E. coli; E. coli Juhl A20898, Table 1, read-out: MIC): > 100 µg/mL | MIC (E. coli; E. coli NIHJ, Table 1, read-out: MIC): 0.8 µg/mL | MIC (E. coli; E. coli NIHJ, Table 8, read-out: MIC): 3.1 µg/mL | concentration at 0.25 h [1]: 3570 ng/mL | concentration at 0.5 h [1]: 900 ng/mL | MIC (K. pneumoniae; K. pneumoniae A9977, Table 1): 12.5 µg/mL | MIC (K. pneumoniae; Klebsiella pneumoniae, K. pneumoniae A9977, Table 8, read-out: MIC): 12.5 µg/mL | MIC (S. enteritidis; S. enteritidis A9531, Table 1): 6.3 µg/mL | MIC (S. enteritidis; Salmonella enterica, S. enteritidis A9531, Table 8, read-out: MIC): 6.3 µg/mL | MIC (E. cloacae; E. cloacae A9656, Table 1): 25 µg/mL | MIC (E. cloacae; E. cloacae A9656, Table 8): 25 µg/mL | MIC (E. cloacae; E. cloacae A9657, Table 1): 50 µg/mL | MIC (E. cloacae; E. cloacae A9657, Table 8): 100 µg/mL | MIC (E. cloacae; E. cloacae A9659, Table 1): 25 µg/mL | MIC (E. cloacae; E. cloacae A9659, Table 8): 25 µg/mL | MIC (Pseudomonas sp.; Pseudomonas sp. A20358, Table 1, read-out: MIC): 1.6 µg/mL | MIC (Pseudomonas sp.; Pseudomonas sp. A20358, Table 8): 1.6 µg/mL | MIC (S. aureus; S. aureus A15097, Table 8, read-out: MIC): > 100 µg/mL | MIC (S. aureus; S. aureus A20239, Table 8, read-out: MIC): 25 µg/mL | MIC (S. aureus; S. aureus A20240, Table 8, read-out: MIC): 12.5 µg/mL | MIC (S. aureus; S. aureus A20701, Table 8, read-out: MIC): > 100 µg/mL | MIC (S. aureus; S. aureus BX-1633 A9606, Table 1, read-out: MIC): 6.3 µg/mL | MIC (S. aureus; S. aureus BX-1633 A9606, Table 8, read-out: MIC): 50 µg/mL | MIC (S. aureus; S. aureus BX-1633 A15097, Table 1, read-out: MIC): 100 µg/mL | MIC (S. aureus; S. aureus BX-1633 A20240, Table 1, read-out: MIC): 6.3 µg/mL | MIC (S. aureus; S. aureus BX-1633 A20701, Table 1, read-out: MIC): > 100 µg/mL | MIC (S. aureus; S. aureus Smith A9537, Table 1, read-out: MIC): 1.6 µg/mL | MIC (S. aureus; S. aureus Smith A9537, Table 8, read-out: MIC): 1.6 µg/mL | MIC (S. aureus; S. aureus Smith A20239, Table 1): 25 µg/mL | MIC (P. mirabilis; Table 1): 0.2 µg/mL | MIC (P. mirabilis; Table 8): 6.3 µg/mL | Mean % relative activity (sulbenicillin = 100%) (Pseudomonas aeruginosa; 61 strains of P. aeruginosa, Table 2): 756% | Mean % relative activity compared with carbenicillin (Pseudomonas aeruginosa; 61 strains of P. aeruginosa, Table 9): 856% | MIC (Pseudomonas aeruginosa; 61 strains of P. aeruginosa, Table 2, read-out: Geometric mean of MIC): 4.2 µg/mL | MIC (Pseudomonas aeruginosa; 61 strains of P. aeruginosa, Table 9, read-out: Geometric mean of MIC): 3.5 µg/mL | MIC (Pseudomonas aeruginosa; ATCC19660, Pa-14 ATCC 19660 A20325, Mueller-Hinton agar, Table 9, read-out: MIC): 6.3 µg/mL | MIC (Pseudomonas aeruginosa; GN315, Pa-27 GN315 A21294, Mueller-Hinton agar, Table 2, read-out: MIC): 3.1 µg/mL | MIC (Pseudomonas aeruginosa; GN315, Pa-27 GN315 A21294, Mueller-Hinton agar, Table 9, read-out: MIC): 1.6 µg/mL | MIC (Pseudomonas aeruginosa; GN4925, Pa-45 GN4925, Mueller-Hinton agar, Table 2, read-out: MIC): 6.3 µg/mL | MIC (Pseudomonas aeruginosa; GN4925, Pa-45 GN 4925, Mueller-Hinton agar, Table 9, read-out: MIC): 6.3 µg/mL | MIC (Pseudomonas aeruginosa; P. aeruginosa A9843, Mueller-Hinton agar, Table 1, read-out: MIC): 3.1 µg/mL | MIC (Pseudomonas aeruginosa; P. aeruginosa A9843, Mueller-Hinton agar, Table 8, read-out: MIC): 3.1 µg/mL | MIC (Pseudomonas aeruginosa; P. aeruginosa A9930, Mueller-Hinton agar, Table 1, read-out: MIC): 1.6 µg/mL | MIC (Pseudomonas aeruginosa; P. aeruginosa A9930, Mueller-Hinton agar, Table 8, read-out: MIC): 1.6 µg/mL | MIC (Pseudomonas aeruginosa; P. aeruginosa A15150, Mueller-Hinton agar, Table 1, read-out: MIC): 0.8 µg/mL | MIC (Pseudomonas aeruginosa; P. aeruginosa A15150, Mueller-Hinton agar, Table 8, read-out: MIC): 1.6 µg/mL | MIC (Pseudomonas aeruginosa; P. aeruginosa A20229, Mueller-Hinton agar, Table 1, read-out: MIC): 1.6 µg/mL | MIC (Pseudomonas aeruginosa; P. aeruginosa A20717, Mueller-Hinton agar, Table 1, read-out: MIC): 6.3 µg/mL | MIC (Pseudomonas aeruginosa; P. aeruginosa A20717, Mueller-Hinton agar, Table 8, read-out: MIC): 6.3 µg/mL | MIC (Pseudomonas aeruginosa; Pa-1 D15, Mueller-Hinton agar, Table 2, read-out: MIC): 6.3 µg/mL | MIC (Pseudomonas aeruginosa; Pa-1 D15, Mueller-Hinton agar, Table 9, read-out: MIC): 6.3 µg/mL | MIC (Pseudomonas aeruginosa; Pa-2 V.A A9923, Mueller-Hinton agar, Table 9, read-out: MIC): 3.1 µg/mL | MIC (Pseudomonas aeruginosa; Pa-2 VA A9923, Mueller-Hinton agar, Table 2, read-out: MIC): 3.1 µg/mL | MIC (Pseudomonas aeruginosa; Pa-3 1449 V.A A9930, Mueller-Hinton agar, Table 9, read-out: MIC): 3.1 µg/mL | MIC (Pseudomonas aeruginosa; Pa-3 1449VA A9930, Mueller-Hinton agar, Table 2, read-out: MIC): 1.6 µg/mL | MIC (Pseudomonas aeruginosa; Pa-4 H9, D113 A21295, Mueller-Hinton agar, Table 9, read-out: MIC): 3.1 µg/mL | MIC (Pseudomonas aeruginosa; Pa-4 H9 D113 A21295, Mueller-Hinton agar, Table 2, read-out: MIC): 6.3 µg/mL | MIC (Pseudomonas aeruginosa; Pa-5 M4865, K.C A15150, Mueller-Hinton agar, Table 9, read-out: MIC): 1.6 µg/mL | MIC (Pseudomonas aeruginosa; Pa-5 M4865KC A15150, Mueller-Hinton agar, Table 2, read-out: MIC): 3.1 µg/mL | MIC (Pseudomonas aeruginosa; Pa-6 No. 5 A15194, Mueller-Hinton agar, Table 2, read-out: MIC): 25 µg/mL | MIC (Pseudomonas aeruginosa; Pa-6 No. 5 Levitan A15194, Mueller-Hinton agar, Table 9, read-out: MIC): 12.5 µg/mL | MIC (Pseudomonas aeruginosa; Pa-7 A9843, Mueller-Hinton agar, Table 2, read-out: MIC): 6.3 µg/mL | MIC (Pseudomonas aeruginosa; Pa-10 A20479, Mueller-Hinton agar, Table 2, read-out: MIC): > 100 µg/mL | MIC (Pseudomonas aeruginosa; Pa-10 A21479, Mueller-Hinton agar, Table 9, read-out: MIC): 100 µg/mL | MIC (Pseudomonas aeruginosa; Pa-11 A20616, Mueller-Hinton agar, Table 2, read-out: MIC): 3.1 µg/mL | MIC (Pseudomonas aeruginosa; Pa-11 A20616, Mueller-Hinton agar, Table 9, read-out: MIC): 6.3 µg/mL | MIC (Pseudomonas aeruginosa; Pa-12 A20653, Mueller-Hinton agar, Table 2, read-out: MIC): 6.3 µg/mL | MIC (Pseudomonas aeruginosa; Pa-12 A20653, Mueller-Hinton agar, Table 9, read-out: MIC): 6.3 µg/mL | MIC (Pseudomonas aeruginosa; Pa-14 A20325, Mueller-Hinton agar, Table 2, read-out: MIC): 3.1 µg/mL

From patent US4231928A, “Antibacterial agents” (priority 1979, dated 1980)
